Test [1] has as its system peroxidase. Briefly: Peroxidase assay in saliva (Amplex Red). Type of test: biochemical. To be noted: single compounds at 500 ppm; pooled and unpooled saliva; 30 minutes; FIGS. 26-29. On the procedure: To determine the effect of various GRAS compounds as inhibitors of peroxidase activity, a standard assay using Amplex® Red (Life Technologies), which releases a fluorescent oxidation product.
The test compounds, such as GRAS materials or cocktails of same, were prepared at a concentration of 500 ppm in distilled water. For the assay, 50 μl samples of test compounds were mixed with 20-30 μl of saliva (either “pooled” or “unpooled”) prior to the addition of Amplex® Red. Following the mixture of the test compounds with saliva, […] Amplex® Red/HRP working solution (See Protocol for Invitrogen Assay #A22188, which is incorporated herein in its entirety), which has a concentration of 100 μM of Amplex® Red, is added to the test compound/saliva mixture. […] Reactions were allowed to run for 30 minutes during these assays.

Test [2] concerns the target T1, α-amylase (Homo sapiens, UniProt P0DUB6).
T1 sequence (P0DUB6 16-511): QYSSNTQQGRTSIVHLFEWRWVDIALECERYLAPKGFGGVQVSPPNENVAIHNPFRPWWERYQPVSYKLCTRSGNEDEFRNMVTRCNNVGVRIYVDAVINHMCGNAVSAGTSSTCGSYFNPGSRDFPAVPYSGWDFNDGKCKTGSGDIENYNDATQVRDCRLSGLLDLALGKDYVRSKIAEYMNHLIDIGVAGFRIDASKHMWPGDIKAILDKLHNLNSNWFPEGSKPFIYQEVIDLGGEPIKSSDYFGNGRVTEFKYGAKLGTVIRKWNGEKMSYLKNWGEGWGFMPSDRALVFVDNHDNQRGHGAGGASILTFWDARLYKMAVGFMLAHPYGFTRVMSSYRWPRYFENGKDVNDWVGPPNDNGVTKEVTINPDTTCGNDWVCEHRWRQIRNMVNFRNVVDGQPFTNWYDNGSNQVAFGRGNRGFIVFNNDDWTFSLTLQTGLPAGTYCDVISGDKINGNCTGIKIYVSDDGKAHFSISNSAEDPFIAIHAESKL
Briefly: α-Amylase inhibition saliva screening (2-chloro-p-nitrophenol-maltotriose substrate, absorbance 405 nm). Type of test: biochemical. To be noted: for Ave (α-amylase assay reading): average of four readings; for α-amylase assay single reading (absorbance at 405 nm): saliva, test compound prepared at 5,000 ppm, 37° C., replicate readings.
Text: Enzymatic activity of α-amylase on the substrate yields 2-chloro-p-nitrophenol, which can be measured spectrophotometrically at 405 nm. The amount of α-amylase activity present in the experimental sample is directly proportional to the increase in absorbance at 405 nm.

Values joined by “and” are separate entries in the source; they are usually repeats but may differ in a detail not shown here. Identical values can stand only once.

As for `Cn1c(=O)c2c(ncn2C)n(C)c1=O` [CDI #33, Caffeine], the peroxidase inhibition entry in test [1] is “significant peroxidase inhibition capabilities”.
On the same count and under the same terms, the result for `COc1ccc(O)c(C(C)(C)C)c1` [CDI-039, 3-tert--butyl-hydroxyanisole] reads “significant peroxidase inhibition capabilities”.
As to “Aluminum potassium sulfate dodecahydrate [CDI-42]”, the “Ave (α-amylase assay reading)” value is given as 0.92 in test [2] (0 min), 1.85 in test [2] (5 min) and 2.29 in test [2] (15 min). Moreover, the “α-amylase assay single reading (absorbance at 405 nm)” value in test [2] (0 min) is 0.80 and 1.13 and 0.90 and 0.84; in test [2] (5 min) it was 1.65 and 2.15 and 1.80 and 1.81; in test [2] (15 min) it was 2.37 and 2.38 and 2.25 and 2.17. Also, the peroxidase inhibition result in test [1] is listed as “significant peroxidase inhibition capabilities”.
With Aluminum sulfate hydrate [CDI-34], the “Ave (α-amylase assay reading)” value in test [2] (0 min) came out at 0.40; in test [2] (5 min), 0.50; in test [2] (15 min), 0.56. In addition, the “α-amylase assay single reading (absorbance at 405 nm)” value in test [2] (0 min, sulfate hydrate) was 0.40 (2×) and 0.36 and 0.45; in test [2] (5 min, sulfate hydrate), 0.49 and 0.50 (2×) and 0.52; in test [2] (15 min, sulfate hydrate) it was 0.53 and 0.61 and 0.54 and 0.56.

The values above are taken from patent US20110195425A1, “SYSTEMS AND METHODS FOR DIAGNOSING PARASITE INFECTIONS” (priority 2010, published 2011).
